Experimental data published in PubChem BioAssay AID179 (DTP/NCI, 2004).
Calls of active or inactive are those of the source.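 The calls were made as follows: active = compounds giving half or more protection of infected cells from virus-caused growth loss, again on retest; inactive = the rest.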

Test system: CEM cells HIV-1 protection, formazan growth assay
Assay: NCI AIDS Antiviral Assay
Conditions: for IC50: measured here: growth of uninfected CEM cells
Method in brief: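 Five concentrations of each compound were applied to infected and uninfected human CEM cells. Protection from HIV-1 was judged from growth measured with a soluble formazan assay.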

| SMILES | EC50 | IC50 | outcome |
| --- | --- | --- | --- |
| O=C(CC(=O)N1CCN(c2ccccn2)CC1)N1CCN(c2ccccn2)CC1 | > 97.7 µM | > 97.7 µM |  |
| CCN(CC)CCSc1nc2c([N+](=O)[O-])cccc2[nH]1 |  |  | inactive |
| CCOC(=O)c1sc2c(C(=O)OCC)c3cc(C)ccn3c2c1N |  |  | inactive |
| O=C(O)c1cc(Cc2cc(C(=O)O)c(O)c(C(=O)c3ccc(O)c(C(=O)O)c3)c2)ccc1O | 537 µM | 832 µM |  |
| C[C@H]1[C@H]2CC[C@H]3[C@@H]4CC(=O)[C@]56C[C@@H]5CC[C@]6(C)[C@H]4CC[C@]23CN1C | > 91.2 µM | > 91.2 µM |  |
| C=CCCC(C)N(C(=O)OC(C)(C)C)S(=O)(=O)c1ccc(C)cc1 (stereo not drawn) | > 14.8 µM | > 14.8 µM |  |
| C/C(=C\O[Si](C)(C)C)c1ccccc1 | > 200 µM | > 200 µM |  |
| CC#CCC(OC(C)=O)c1ccccc1 (stereo not drawn) |  |  | inactive |
| COc1cc(C(C#N)S(=O)(=O)O)ccc1O (stereo not drawn) | > 200 µM | > 200 µM |  |
| COc1nn(C)c(=O)c2cccnc12 | > 1100 µM | 676 µM |  |
| COc1cccc(/C=C2\SC(=S)N(/C=C(/C#N)C(N)=O)C2=O)c1O | 100 µM | 112 µM |  |
| Cn1c(=O)c2c(nc(Nc3ccc(Cl)cc3)n3c(=O)n(-c4ccccc4)c(=O)n23)n(C)c1=O | > 200 µM | 145 µM |  |
| O=C(CC1=NC2NN(c3ccccc3)C(=O)C2=C1CC(=O)c1ccccc1)c1ccccc1 (stereo not drawn) | > 575 µM | 174 µM |  |
| O=[N+]([O-])c1cc(/C=N/NS(=O)(=O)c2ccc(F)cc2)c(O)c([N+](=O)[O-])c1 | > 646 µM | 37.2 µM |  |
| O=C1/C(=C/c2ccc([N+](=O)[O-])cc2)Oc2cc(O)ccc21 | > 200 µM | 35.5 µM |  |
| CN(N=O)C(=O)NC(CCCCNC(=O)OCc1ccccc1)C(=O)OCc1ccccc1 (stereo not drawn) | > 21.9 µM | > 21.9 µM |  |
| C[C@]12CC[C@H](OC(=O)CCC(=O)O)CC1=CC[C@@H]1C2CC[C@@]2(C)C1CC[C@@H]2c1ncc(-c2ccccc2)s1 (stereo partly drawn) | > 9.33 µM | > 9.33 µM |  |
| Cc1[nH]n(-c2nc(-c3ccccc3)cc(=O)[nH]2)c(=O)c1CCO | > 200 µM | > 200 µM |  |
| COc1nc(N(C)C)nc2c1n(C)c[n+]2C | > 107 µM | 12.6 µM |  |
| COc1ccccc1NC(=O)CC(=O)n1nc(C)c(N=Nc2ccccc2Cl)c1C |  |  | inactive |
| CN(C)C1C(=O)C(C(=O)NC[N+]23CCO[B-]2(c2ccc(Cl)cc2)OCC3)=C(O)C2(O)C(=O)C3=C(O)c4c(O)cccc4C(C)(O)C3CC12 (stereo not drawn) | > 27.5 µM | > 27.5 µM |  |

| SMILES | EC50 | IC50 | outcome |
| --- | --- | --- | --- |
| N/C(=C\c1ccc(/C=C(\NC(=O)c2ccccc2)c2nc3c([nH]2)C(=O)c2ccccc2C3=O)cc1)c1nc2c([nH]1)C(=O)c1ccccc1C2=O |  |  | inactive |
| O=S(=O)([O-])c1ccc(N=Cc2ccccc2[O-])cc1.O=S(=O)([O-])c1ccc(N=Cc2ccccc2[O-])cc1.[Co+2] | > 407 µM | 23.4 µM |  |
| O=P(O)(O)OP(=O)(O)O | 182 µM | > 200 µM |  |
| Cc1cc(Cl)ccc1NC(=O)C1C(=O)C(=O)N(c2ccc(Cl)cc2C)C1=O (stereo not drawn) |  |  | inactive |
| CCOC(=O)N1CCNCCN(C(=O)OCC)CCNCC1 | > 200 µM | > 200 µM |  |
| COc1cc(Br)c(CCC#N)cc1OC | > 347 µM | 37.2 µM |  |
| COc1cccc2c1C(=O)OC2c1cccc2ccccc12 (stereo not drawn) |  |  | inactive |
| Cc1cn2cc(-c3ccncc3)nc2s1 | > 209 µM | 112 µM |  |
| O=[N+]([O-])c1ccc(C2=Nn3c(nnc3-c3ccc(Cl)cc3)SC2)o1 |  |  | inactive |
| CN=C(NC#N)NCCSCc1nc[nH]c1C | > 389 µM | > 389 µM |  |
| COc1ccc(N=NC(=O)NC(CC(C)C)C(=O)NC(CC(C)C)C(=O)O)cc1 (stereo not drawn) | > 200 µM | 7.24 µM |  |
| Cc1nc2cc(C)[nH]c(=O)n2n1 | > 1510 µM | > 1510 µM |  |
| FC1C2=C(SC1(F)F)C1CCC2C1 (stereo not drawn) | > 200 µM | > 200 µM |  |
| COC(=O)C(C(=O)C(=O)Nc1ccccc1C#N)c1nc2ccc([N+](=O)[O-])cc2[nH]c1=O (stereo not drawn) | > 16.6 µM | > 16.6 µM |  |
| COc1ccc(Cc2cnc(N)nc2N)cc1OC |  |  | inactive |
| CCOC(=O)c1cc(-c2ccc(OC)c(OC)c2)cn1C | > 200 µM | 39.8 µM |  |
| O=S(=O)(c1ccccc1)n1c2ccc(Br)cc2c2nc3ccccc3nc21 | > 200 µM | > 200 µM |  |
| O=c1[nH]nc2ccccc2c1Cc1ccccc1 | > 151 µM | > 151 µM |  |
| CCCCCCCSc1nc2c(C(=O)OCC)ncn2c2ccccc12 | > 19.5 µM | > 19.5 µM |  |
| CC1(C)C(=O)C(C)(C)C12SSC1(S2)C(C)(C)C(=O)C1(C)C | > 200 µM | 81.3 µM |  |
| Cc1ccc(Oc2ccc(C)cc2N)cc1 |  |  | inactive |

| SMILES | EC50 | IC50 | outcome |
| --- | --- | --- | --- |
| CC(C)CC1C(=O)NCCC(NC(=O)C(Cc2ccc(OC(C)(C)C)cc2)NC(=O)OC(C)(C)C)C(=O)NC(Cc2ccccc2)C(=O)NC(Cc2ccccc2)NC1=O (stereo not drawn) | > 63.1 µM | 7.24 µM |  |
| CCN(CC)CCCNC(=O)C1COc2cc(-c3cc(=O)c4ccccc4o3)ccc2O1 (stereo not drawn) |  |  | inactive |
| O=C(/C=C/c1ccc(O)cc1)c1cc(Cl)ccc1O |  |  | inactive |
| CC(=O)NNc1nc(C)c(C(=O)NNC(=O)C(=O)Nc2ccc(C)cc2[N+](=O)[O-])s1 | > 83.2 µM | 39.8 µM |  |
| COC(=O)C(C(=O)C(=O)Nc1ccc(N)cc1[N+](=O)[O-])c1nc2ccc(Cl)cc2[nH]c1=O (stereo not drawn) | > 40.7 µM | 30.9 µM |  |
| O=C(O)c1ccc(/C=C/c2ccc(N=Nc3c(O)cc(O)cc3C(=O)O)cc2C(=O)O)cc1 | > 200 µM | 120 µM |  |
| C=CCNC(=O)CN(CC(=O)OC)C1CCCCC1N(CC(=O)OC)CC(=O)OC (stereo not drawn) | > 200 µM | > 200 µM |  |
| CC1(C)NC(=O)[C@]2(C[C@@H](O)C=C2CO)O1 | > 200 µM | > 200 µM |  |
| CC12C=CC(C)(C3C(=O)C4C(C(=O)C31)C1(C)C=CC4(C)S1=O)S2=O (stereo not drawn) | 21.9 µM | 60.3 µM |  |
| COc1ccc(N=Nc2ccc3oc(=O)c(C(=O)Nc4ccccc4C)cc3c2)cc1 | > 200 µM | 66.1 µM |  |
| NNC(=O)CCC(NS(=O)(=O)c1ccc(Cl)cc1)C(=O)NN (stereo not drawn) | > 200 µM | 145 µM |  |
| CCOC(=O)C1Cc2c([nH]c(=O)[nH]c2=O)OC1c1ccc([N+](=O)[O-])cc1 (stereo not drawn) | > 363 µM | > 363 µM |  |
| NC(Cc1csc2ccccc12)C(=O)O (stereo not drawn) | > 200 µM | 19.5 µM |  |
| COC(=O)c1cc(C(=CCCOS(C)(=O)=O)c2cc(Cl)c(OC)c(C(=O)OC)c2)cc(Cl)c1OC | > 200 µM | 14.5 µM |  |
| CC(C)=CCOc1cc(NC(=S)c2ccsc2C)ccc1Cl | 0.0417 µM | 15.8 µM |  |
| O=C1OC[C@H]2[C@@H]1[C@H]1O[C@@H]2C2=C(CCC2)C1=O | > 200 µM | > 200 µM |  |
| COC(=O)n1c(=O)nc2c3c(ncn21)Oc1c(c(-c2ccccc2)nn1-c1ccccc1)C3c1ccc(Cl)cc1 (stereo not drawn) | > 100 µM | 2.34 µM |  |
| CCOC(=O)C12C3CCC1C2C(=O)C3 (stereo not drawn) |  |  | inactive |
| O=C1c2cc3c(cc2CC1Cc1ccc2c(c1)CCC2)CCC3 (stereo not drawn) | > 200 µM | 91.2 µM |  |
| Cc1cc(Cl)cc(S)c1S(=O)(=O)Nc1nnc2ccc3ccccc3n12 | > 200 µM | 93.3 µM |  |
| CC(C)(C)OC(=O)NCCC(N)=S | > 646 µM | 174 µM |  |
